Measured values from patent publication US20150105252A1, “SUBSTITUTED PYRAZOLES AS HERBICIDES” (E I DU PONT DE NEMOURS AND COMPANY, priority 2013, published 2015).

Experiments:
crabgrass, large [1] = assay: Test A postemergence; format: in vivo, Digitaria sanguinalis
Method in brief: (§1)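 Growth medium: loam soil blended with sand. Preemergence treatment used a directed soil spray right after planting; postemergence treatment targeted seedlings at one to two leaves (2–10 cm height). Response was judged by eye relative to untreated plants about 10 days later on a 0–100 control scale.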

foxtail, giant [2] = assay: Test A preemergence; format: in vivo, Setaria faberii; conditions: preemergence
Method in brief: as §1

barnyardgrass [3] = assay: Test C preemergence; format: in vivo, Echinochloa crus-galli; conditions: for Plant response rating (scale of 0 to 100), Barnyardgrass: Preemergence, 250 g ai/ha; for Barnyardgrass plant response rating: preemergence
Method in brief: (§2)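 Scores of 0 (no effect) to 100 (complete control) were assigned by eye after 13–15 days, comparing treated pots with controls. Soil-applied (preemergence) treatments went onto seeds in loam and sand; foliar (postemergence) treatments onto 1- to 4-leaf plants in peat medium.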

barnyardgrass [4] = assay: Test A postemergence; format: in vivo, Echinochloa crus-galli
Method in brief: as §1

morningglory [5] = assay: Test C preemergence; format: in vivo, Ipomoea coccinea; conditions: for Plant response rating (scale of 0 to 100), Morningglory: Preemergence, 250 g ai/ha; for Morningglory plant response rating: preemergence
Method in brief: as §2

nutsedge, yellow = assay: Test C postemergence; format: in vivo, Cyperus esculentus; conditions: for Plant response rating (scale of 0 to 100 where 0 is no effect and 100 is complete control), Nutsedge, Yellow: Postemergence, 31 g ai/ha, visually evaluated after 13 to 15 days; for Nutsedge, Yellow plant response rating / Plant response rating, Nutsedge, Yellow: postemergence; for Nutsedge, Yellow plant response rating: 62 g ai/ha, scale 0 to 100
Method in brief: as §2

barnyardgrass [6] = assay: Test B flood; format: in vivo, Echinochloa crus-galli; conditions: 250 g ai/ha, visual rating on 0 to 100 scale (0 no effect, 100 complete control), 13 to 15 days
Method in brief: (§3)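 Greenhouse assay lasting 13 to 15 days. Treatment was into water flooding pots 3 cm deep, at the 2-leaf stage, with that level sustained afterwards. Scores compare treated with control plants visually, 100 denoting complete control and 0 no effect; a dash marks no test result.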

rice = assay: Test B flood; format: in vivo, Oryza sativa; conditions: 250 g ai/ha, visual rating on 0 to 100 scale (0 no effect, 100 complete control), 13 to 15 days
Method in brief: as §3

crabgrass, large [7] = assay: Test C postemergence; format: in vivo, Digitaria sanguinalis; conditions: for Plant response rating (scale of 0 to 100 where 0 is no effect and 100 is complete control), Crabgrass, Large: Postemergence, 31 g ai/ha, visually evaluated after 13 to 15 days; for Crabgrass, Large plant response rating / Plant response rating, Crabgrass, Large: postemergence; for Crabgrass, Large plant response rating: 62 g ai/ha, scale 0 to 100
Method in brief: as §2

pigweed = assay: Test C preemergence; format: in vivo, Amaranthus retroflexus; conditions: for Plant response rating (scale of 0 to 100), Pigweed: Preemergence, 250 g ai/ha; for Pigweed plant response rating: preemergence
Method in brief: as §2

corn = assay: Test A preemergence; format: in vivo, Zea mays; conditions: preemergence
Method in brief: as §1

morningglory [8] = assay: Test A postemergence; format: in vivo, Ipomoea spp.
Method in brief: as §1

galium = assay: Test C postemergence; format: in vivo, Galium aparine; conditions: for Plant response rating (scale of 0 to 100 where 0 is no effect and 100 is complete control), Galium: Postemergence, 31 g ai/ha, visually evaluated after 13 to 15 days; for Galium plant response rating / Plant response rating, Galium: postemergence; for Galium plant response rating: 62 g ai/ha, scale 0 to 100
Method in brief: as §2

foxtail, giant [9] = assay: Test A postemergence; format: in vivo, Setaria faberii
Method in brief: as §1

[10] = Postemergence, 500 g ai/ha, visual rating after approx. 10 days, 0 to 100 scale (0 no effect, 100 complete control)
[11] = postemergence, 125 g ai/ha, about 10 days, visual rating on 0 to 100 scale (0 no effect, 100 complete control)
[12] = 125 g ai/ha, visual injury, 0 to 100 scale, approx. 10 days
[13] = 500 g ai/ha, visual injury after approx. 10 days, 0 to 100 scale (0 no effect, 100 complete control)
[14] = 31 g ai/ha, scale 0 to 100 (0 no effect, 100 complete control), 13 to 15 days
[15] = 62 g ai/ha, scale 0 to 100 (0 no effect, 100 complete control), 13 to 15 days
[16] = 125 g ai/ha, scale 0 to 100, 0 is no effect, 100 is complete control
[17] = 31 g ai/ha, visual rating, scale 0 to 100 (0 no effect, 100 complete control), 13 to 15 days
[18] = 250 g ai/ha, scale 0 to 100 (0 no effect, 100 complete control)
[19] = 125 g ai/ha, scale 0 to 100, 0 no effect, 100 complete control

| Structure (SMILES) | Crabgrass, Large plant response rating (crabgrass, large [1]; [10]) | Crabgrass, Large plant response rating (crabgrass, large [1]; [11]) | Foxtail, Giant plant response rating (foxtail, giant [2]; [12]) | Foxtail, Giant plant response rating (foxtail, giant [2]; [13]) | Plant response rating (scale of 0 to 100), Barnyardgrass (barnyardgrass [3]) | Barnyardgrass plant response rating (barnyardgrass [3]; [14]) | Barnyardgrass plant response rating (barnyardgrass [3]; [15]) | Barnyardgrass plant response rating (barnyardgrass [3]; [16]) | Barnyardgrass plant response rating (barnyardgrass [4]; [10]) | Barnyardgrass plant response rating (barnyardgrass [4]; [11]) | Plant response rating (scale of 0 to 100), Morningglory (morningglory [5]) | Morningglory plant response rating (morningglory [5]; [17]) | Morningglory plant response rating (morningglory [5]; [15]) | Morningglory plant response rating (morningglory [5]; [16]) | Plant response rating (scale of 0 to 100 where 0 is no effect and 100 is complete control), Nutsedge, Yellow (nutsedge, yellow) | Nutsedge, Yellow plant response rating (nutsedge, yellow) | Plant response rating, Nutsedge, Yellow (nutsedge, yellow; [18]) | Plant response rating, Nutsedge, Yellow (nutsedge, yellow; [19]) | Plant response rating, Barnyardgrass (barnyardgrass [6]) | Plant response rating, Rice (rice) | also measured |
| --- | --- | --- | --- | --- | --- | --- | --- | --- | --- | --- | --- | --- | --- | --- | --- | --- | --- | --- | --- | --- | --- |
| CCc1cc(C(=O)NCC(F)(F)F)nn1Cc1cc(C(F)(F)F)nn1C [Compound 108, 5-ethyl-1-[[1-methyl-3-(trifluoromethyl)-1H-pyrazole-5-yl]methyl]-N-(2,2,2-trifluoroethyl)-1H-pyrazole-3-carboxamide] | 100 | 90 | 100 | 100 | 100 | 50 | 100 | 100 | 90 | 90 | 100 | 98 | 100 | 100 | 0 | 0 | 25 | 0 | 40 | 15 | Plant response rating (scale of 0 to 100 where 0 is no effect and 100 is complete control), Crabgrass, Large (crabgrass, large [7]): 5; Crabgrass, Large plant response rating (crabgrass, large [7]): 10; Plant response rating, Crabgrass, Large (crabgrass, large [7]; [18]): 50; Plant response rating, Crabgrass, Large (crabgrass, large [7]; [19]): 10; Plant response rating (scale of 0 to 100), Pigweed (pigweed): 100; Pigweed plant response rating (pigweed; [17]): 100; Pigweed plant response rating (pigweed; [15]): 100; Pigweed plant response rating (pigweed; [16]): 100; Corn plant response rating (corn; [12]): 30; Corn plant response rating (corn; [13]): 90; Morningglory plant response rating (morningglory [8]; [10]): 100; Morningglory plant response rating (morningglory [8]; [11]): 90; Plant response rating (scale of 0 to 100 where 0 is no effect and 100 is complete control), Galium (galium): 60; Galium plant response rating (galium): 60; Plant response rating, Galium (galium; [18]): 90; Plant response rating, Galium (galium; [19]): 80; Foxtail, Giant plant response rating (foxtail, giant [9]; [10]): 100; Foxtail, Giant plant response rating (foxtail, giant [9]; [11]): 90 |
| CCc1cc(C(=O)NCC(F)(F)F)nn1Cc1nc(C(F)(F)F)nn1C [Compound 107] | 90 | 80 | 100 | 100 | 100 | 40 | 100 | 100 | 90 | 80 | 100 | 90 | 100 | 100 | 0 | 0 | 40 | 5 | 40 | 30 | Plant response rating (scale of 0 to 100 where 0 is no effect and 100 is complete control), Crabgrass, Large (crabgrass, large [7]): 5; Crabgrass, Large plant response rating (crabgrass, large [7]): 30; Plant response rating, Crabgrass, Large (crabgrass, large [7]; [18]): 85; Plant response rating, Crabgrass, Large (crabgrass, large [7]; [19]): 45; Plant response rating (scale of 0 to 100), Pigweed (pigweed): 100; Pigweed plant response rating (pigweed; [17]): 100; Pigweed plant response rating (pigweed; [15]): 100; Pigweed plant response rating (pigweed; [16]): 100; Corn plant response rating (corn; [12]): 30; Corn plant response rating (corn; [13]): 80; Morningglory plant response rating (morningglory [8]; [10]): 100; Morningglory plant response rating (morningglory [8]; [11]): 90; Plant response rating (scale of 0 to 100 where 0 is no effect and 100 is complete control), Galium (galium): 50; Galium plant response rating (galium): 85; Plant response rating, Galium (galium; [18]): 90; Plant response rating, Galium (galium; [19]): 90; Foxtail, Giant plant response rating (foxtail, giant [9]; [10]): 90; Foxtail, Giant plant response rating (foxtail, giant [9]; [11]): 70 |
| CCCNC(=O)c1cc(CC)n(Cc2nc(C(F)(F)F)nn2C)n1 [Compound 109] | 90 | 90 | 100 | 100 | 100 | 100 | 100 | 100 | 90 | 90 | 100 | 95 | 100 | 100 | 0 | 5 | 5 | 5 | 0 | 0 | Plant response rating (scale of 0 to 100 where 0 is no effect and 100 is complete control), Crabgrass, Large (crabgrass, large [7]): 5; Crabgrass, Large plant response rating (crabgrass, large [7]): 10; Plant response rating, Crabgrass, Large (crabgrass, large [7]; [18]): 45; Plant response rating, Crabgrass, Large (crabgrass, large [7]; [19]): 10; Plant response rating (scale of 0 to 100), Pigweed (pigweed): 100; Pigweed plant response rating (pigweed; [17]): 70; Pigweed plant response rating (pigweed; [15]): 100; Pigweed plant response rating (pigweed; [16]): 100; Corn plant response rating (corn; [12]): 60; Corn plant response rating (corn; [13]): 80; Morningglory plant response rating (morningglory [8]; [10]): 100; Morningglory plant response rating (morningglory [8]; [11]): 90; Plant response rating (scale of 0 to 100 where 0 is no effect and 100 is complete control), Galium (galium): 50; Galium plant response rating (galium): 50; Plant response rating, Galium (galium; [18]): 80; Plant response rating, Galium (galium; [19]): 65; Foxtail, Giant plant response rating (foxtail, giant [9]; [10]): 90; Foxtail, Giant plant response rating (foxtail, giant [9]; [11]): 90 |
